According to patent publication US20240317745A1, “SIGMA-1 RECEPTOR ANTAGONISTS AND THEIR APPLICATIONS” (Humanwell Pharmaceutical US, Inc., priority 2023, published 2024):
Counter-ions that a name gives are not always drawn.

Assays:
Sigma-1 receptor = Sigma-1 receptor (Cavia porcellus (Guinea pig), UniProt Q60492); assay: Sigma-1 receptor binding affinity test ([3H]-(+)-pentazocine displacement, guinea pig cerebral cortex membranes); details: [3H]-(+)-pentazocine 10 nM, 25° C., 180 minutes; read-out: Sigma1R Ki
Description: Guinea pigs (provided by Beijing Vital River Laboratory Animal Technology Co., Ltd.) were decapitated, and the operations were carried out on ice. The cerebral cortex was quickly harvested and pooled into a centrifuge tube. A suitable amount of buffer (0.05M Tris-HCl with 0.32M sucrose) was added to the tube, and the tissue was homogenized using a homogenizer (IKA, Ultra Turrax T25 Digital) at setting 4 for 3˜4 seconds, repeated four times. After homogenization, solution B was added to adjust the volume to 10 mL/g. The weight of the centrifuge tubes was balanced, and then they were centrifuged at 1000 g for 10 minutes using a high-speed refrigerated centrifuge. The supernatant was collected and adjusted to 2 mL/g with solution B, followed by centrifugation at 1000 g and 4° C. for 10 minutes. The supernatant was then centrifuged at 18000 rpm and 4° C. for 25 minutes. The pellet was resuspended in solution B to a final volume of 3 mL/g and incubated in a water bath at 25° C. for 15 minutes. After incubation, the suspension was centrifuged at 18000 rpm and 4° C. for 45 minutes. The pellet was stored at −80° C. for future use.
An appropriate amount of homogenization buffer was added to the prepared membrane, and was dispersed into a suspension using a homogenizer, protein concentration was measured to be 4 mg/ml. 100 micrograms of protein were added to each well of a 96-well plate, with a volume of 90 μl. […] [3H]-(+)-pentazocine (Perkin-Elmer, Cat #NET1056250UC) was added to each well (final concentration of 10 nM). The 96-well plate was incubated in a constant temperature water bath (25° C., 180 minutes). […] After washing, the samples were dried in a 37° C. oven.

[1] = system: Spinal Nerve Ligation (SNL) model; assay: Spinal Nerve Ligation (SNL) model, mechanical pain threshold by Von Frey filaments; type: in vivo; details: rat, oral administration (i.g.), 100 mg/kg, mechanical pain threshold ipsilateral hind paw
Excerpt: It is a type of chronic pain characterized by features such as spontaneous pain, hyperalgesia, abnormal pain, and sensory disturbances. Following nerve damage, neuropathic pain can persist, and its characteristics include hypersensitive responses to stimuli […], the presence of abnormal sensations (allodynia), and painful responses to non-harmful stimuli […]. The Spinal Nerve Ligation (SNL) model involves the tight ligation of the L5 and L6 spinal nerves using sutures.
In this experiment, pregabalin at a dose of 100 mg/kg was used as a positive control to compare the analgesic effect of the test compound. After administration, the mechanical pain threshold in the ipsilateral hind paw of the rat was tested using Von Frey filaments. The change in mechanical pain threshold before and after administration was used to determine whether the test compound at 100 mg/kg has a neuropathic pain-relieving effect in the SNL model.

[2] = system: motor balance ability of rats; assay: Rat rotarod test (motor balance ability); type: in vivo; details: 15 rpm
Description: Placing rats on a continuously rotating rod causes them to move immediately in the opposite direction of the rod's motion. […] During the formal experiment, the time the rats stay on the rotarod is used as an indicator to measure their motor balance ability. This experiment aims to explore the impact of compound 37 at doses ranging from 10 to 300 mg/kg on the motor balance ability of rats in the rotarod test.
After administration of the test substance to the rats, they are placed on the rotarod fatigue tester, and the average time spent on the rod after three tests is recorded and analyzed.
Calculate the Maximum Possible Effect on Motor Balance Ability %: Maximum Possible Effect on Motor Balance Ability %=(1−test group/vehicle)×100%
Note: The motor balance ability of the vehicle group is considered as 0%, and the Maximum Possible Effect on Motor Balance Ability % for each group is calculated based on this standard.

Sequence of Sigma-1 receptor (Q60492 whole entry): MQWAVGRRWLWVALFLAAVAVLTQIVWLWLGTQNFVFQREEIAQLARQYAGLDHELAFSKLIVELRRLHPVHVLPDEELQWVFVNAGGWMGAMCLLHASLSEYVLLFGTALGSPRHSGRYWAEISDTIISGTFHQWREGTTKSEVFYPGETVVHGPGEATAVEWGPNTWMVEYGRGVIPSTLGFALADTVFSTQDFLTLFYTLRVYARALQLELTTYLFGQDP

Row | Structure (SMILES) | Ki (Sigma-1 receptor) [µM] | other results
1 | CC1COCC(C)N1CCOCc1cc(-c2ccc(Cl)c(Cl)c2)no1 (centres unmarked) [Compound 77] | 0.0149 | –
2 | Fc1ccc(-c2cc(CN3CCOCC3)on2)cc1F [Compound 19] | 0.172 | –
3 | O[C@H]1CCN(Cc2cc(-c3ccc(F)c(F)c3)no2)C1 [Compound 38] | 0.379 | –
4 | OC[C@H]1CCCN1Cc1cc(-c2ccc(Cl)c(Cl)c2)no1 [Compound 44] | 0.019 | –
5 | CC(C)C[C@H](CN)CC(=O)O [Pregabalin, pregabalin] | – | analgesic activity in the SNL model [1]: some analgesic activity
6 | OCCC1CCN(Cc2cc(-c3ccc(Cl)c(Cl)c3)no2)CC1 [Compound 47] | 0.00074 | –
7 | Cc1cccc([C@H](C)c2cnc[nH]2)c1C [dexmedetomidine hydrochloride injection, dexmedetomidine hydrochloride, reference compound] | – | Maximum Possible Effect on Motor Balance Ability ([2]; subcutaneous injection 30 μg/kg, 15 minutes prior, vs vehicle): 62%
8 | O[C@@H]1CCN(Cc2cc(-c3ccc(Cl)c(Cl)c3)no2)C1 [Compound 43] | 0.00797 | –
9 | OC[C@H]1CCCN1Cc1cc(-c2ccc(F)c(F)c2)no1 [Compound 40] | 0.19 | –
10 | Fc1ccc(-c2cc(CN3CC[Se]CC3)on2)cc1F [Compound 20] | 0.0489 | –
11 | OC1CCN(Cc2cc(-c3ccc(F)c(F)c3)no2)CC1 [Compound 37] | – | change in the time spent on the rotarod compared to the vehicle ([2]; oral 15 minutes prior, 10-300 mg/kg): no significant change; Maximum Possible Effect on Motor Balance Ability ([2]; oral 15 minutes prior, first of four doses in 10-300 mg/kg): −6%; Maximum Possible Effect on Motor Balance Ability ([2]; oral 15 minutes prior, fourth of four doses in 10-300 mg/kg): −6%; Maximum Possible Effect on Motor Balance Ability ([2]; oral 15 minutes prior, second of four doses in 10-300 mg/kg): 11%; Maximum Possible Effect on Motor Balance Ability ([2]; oral 15 minutes prior, third of four doses in 10-300 mg/kg): −6%
12 | O=C1CCN(Cc2cc(-c3ccc(F)c(F)c3)no2)CC1 [Compound 88] | 0.959 | –
13 | OC[C@@H]1CCCN1Cc1cc(-c2ccc(F)c(F)c2)no1 [Compound 41] | 0.034 | –
